Laboratory results taken from PMC8175350, “Drug repurposing screens identify chemical entities for the development of COVID-19 interventions” (Nature Communications, 2021).
Structures can show the parent of a compound that is named as a salt. Where two headings read alike, the source gives them in different places.

Legend:
Calu-3 cells [1] = settings: read-out: Calu-3 cell count EC50 GeoMean
SARS-CoV-2 [2] = experiment: microbe, parasite or virus in culture; format: cell-based; settings: for EC50: read-out: HeLa-ACE2 TOA CoV-2 EC50 GeoMean
SARS-CoV-2 [3] = experiment: microbe, parasite or virus in culture; format: cell-based; settings: for Emax: Severe acute respiratory syndrome coronavirus 2, Calu-3, 48 h, read-out: Calu-3 CoV-2 Sinf Average
HepG2 [4] = settings: human, 72 h
HeLa-ACE2 cells [5] = experiment: Uninfected HeLa-ACE2 24 h live/dead cytotoxicity counter screen; format: cell-based, human
HEK293T [6] = settings: human, 72 h
SARS-CoV-2 [7] = format: cell-based
HeLa-ACE2 cells [8] = experiment: Total cell count in the HeLa-ACE2 TOA assay; format: cell-based; settings: Homo sapiens, HeLa-ACE2, read-out: HeLa-ACE2 TOA cell count EC50 GeoMean
Text: Supplement 41467_2021_23328_MOESM3_ESM.xlsx, sheet "Table S1" | column: HeLa-ACE2 TOA cell count

SARS-CoV-2 [9] = experiment: microbe, parasite or virus in culture; format: cell-based; settings: for Emax: Severe acute respiratory syndrome coronavirus 2, HeLa-ACE2, 24 h, read-out: HeLa-ACE2 CoV-2 Sinf Average
[10] = Uninfected Calu-3 48 h Cell-Titer Glo cytotoxicity counter screen; settings: human, uninfected Calu-3 cells
Calu-3 cells [11] = experiment: as above
[12] = Uninfected HeLa-ACE2 24 h live/dead cytotoxicity counter screen; format: cell-based, human; settings: human, uninfected HeLa-ACE2 cells
[13] = cited from earlier work; for Cmax: read-out: Approx. Cmax
Calu-3 cells [14] = experiment: cells; settings: Homo sapiens
HeLa-ACE2 cells [15] = experiment: cells; settings: Homo sapiens; for Emax: HeLa-ACE2, 24 h, read-out: HeLa-ACE2 cell count Sinf Average
[16] = HepG2 72 h CellTiter-Glo cytotoxicity; settings: human, HepG2 cells
HepG2 [17] = experiment: HepG2 72 h CellTiter-Glo cytotoxicity; settings: 72 h
[18] = HEK293T 72 h CellTiter-Glo cytotoxicity; settings: human, HEK293T cells
HEK293T [19] = experiment: HEK293T 72 h CellTiter-Glo cytotoxicity; settings: 72 h
HeLa-ACE2 cells [20] = experiment: Total cell count in the HeLa-ACE2 TOA (time of addition) assay; format: cell-based, human; settings: Homo sapiens, HeLa-ACE2; read-out: HeLa-ACE2 TOA cell count EC50 GeoMean
[21] = curve plateau at infinite concentration
[22] = read-out: HeLa-ACE2 uninfected cytotoxicity CC50 GeoMean
[23] = curve-fit effect at infinite concentration, average
[24] = Severe acute respiratory syndrome coronavirus 2, Calu-3, reconfirmed hits, read-out: Calu-3 SARS-CoV-2 EC50
[25] = Calu-3 Uninf. cells CC50 (µM), reconfirmed hits
[26] = reconfirmed hits, read-out: HeLa-ACE2 Uninf. cells CC50
[27] = Severe acute respiratory syndrome coronavirus 2, HeLa-ACE2, reconfirmed hits, read-out: HeLa-ACE2 SARS-CoV-2 EC50

For `Cc1cccc(/C=N/Nc2cc(N3CCOCC3)nc(OCCc3ccccn3)n2)c1` [Apilimod - control], the EC50 (Calu-3 cells [1]) was over 2.5 µM, the EC50 (SARS-CoV-2 [2]) was over 2.4 µM and the EC50 (SARS-CoV-2 [3]; read-out: Calu-3 CoV-2 EC50 GeoMean) was 1.87 µM. For the same molecule, the “HepG2 72-hour cytotoxicity Sinf Average” value (HepG2 [4]) was -69%, the “HeLa-ACE2 uninfected cytotoxicity Sinf Average” value (HeLa-ACE2 cells [5]; [21]) was -100% and the CC50 (HeLa-ACE2 cells [5]; [22]) was over 11.5 µM. The “HEK293T 72-hour cytotoxicty Sinf Average” value (HEK293T [6]) was -79%, the “HeLa-ACE2 synergy score with remdesivi [δ]” value (SARS-CoV-2 [7]; combination with remdesivir, synergy score δ) was 3.568 and the EC50 (HeLa-ACE2 cells [8]) was over 2.4 µM. It also gave an Emax (SARS-CoV-2 [9]; [21]) of 95% and an EC50 (SARS-CoV-2 [9]; read-out: HeLa-ACE2 CoV-2 EC50 GeoMean) of 0.011 µM.

Work on `COC(=O)[C@]12CCC(C)(C)C[C@H]1[C@H]1C(=O)C=C3[C@@]4(C)C=C(C#N)C(=O)C(C)(C)[C@@H]4CC[C@@]3(C)[C@]1(C)CC2` [Bardoxolone methyl] yielded an Emax (SARS-CoV-2 [3]; [23]) of 96%, an EC50 (SARS-CoV-2 [3]; [24]) of 0.079 µM and an EC50 (SARS-CoV-2 [3]; Severe acute respiratory syndrome coronavirus 2, Calu-3, unrounded geometric mean, read-out: Calu-3 CoV-2 EC50 GeoMean) of 0.0794 µM. The CC50 at 48 h [10, 25] was 3.06 µM, the CC50 at 48 h ([10]; Calu-3 uninfected cytotoxicity CC50 GeoMean, unrounded geometric mean) was 3.06 µM and the “Calu-3 uninfected cytotoxicity Sinf Average” value (Calu-3 cells [11]; [23]) was -97%. For the same molecule, the CC50 at 24 h [12, 26] was 3.1 µM, the CC50 at 24 h ([12]; uninfected cells, Fig. 2b group, read-out: HeLa-ACE2 CC50) was at most 3 µM and the CC50 at 24 h ([12]; unrounded geometric mean, read-out: HeLa-ACE2 uninfected cytotoxicity CC50 GeoMean) was 3.1 µM. For the same molecule, the “HeLa-ACE2 uninfected cytotoxicity Sinf Average” value (HeLa-ACE2 cells [5]; [23]) was -101%, the “Approx. t1/2” value ([13]; human, ref [33]-[49]) was 39 h and the Cmax ([13]; human, oral, ref [36],[37],[42],[43] as in column Refs.) was 50 nM. The Emax (Calu-3 cells [14]; Calu-3, 48 h, read-out: Calu-3 cell count Sinf Average) was 41%, the EC50 (Calu-3 cells [14]; Calu-3, read-out: Calu-3 cell count EC50 GeoMean, unrounded geometric mean) was 0.116 µM and the Emax (HeLa-ACE2 cells [15]) was 101%. The EC50 (HeLa-ACE2 cells [15]; HeLa-ACE2, read-out: HeLa-ACE2 cell count EC50 GeoMean, unrounded geometric mean) was 1.26 µM, the Emax (SARS-CoV-2 [9]; [23]) was 100% and the EC50 (SARS-CoV-2 [9]; [27]) was 0.541 µM. The EC50 (SARS-CoV-2 [9]; Severe acute respiratory syndrome coronavirus 2, HeLa-ACE2, unrounded geometric mean, read-out: HeLa-ACE2 CoV-2 EC50 GeoMean) was 0.541 µM.

For `CCCCN(CCCC)CCC(O)c1cc2c(Cl)cc(Cl)cc2c2cc(C(F)(F)F)ccc12` (stereo not shown) [Halofantrine HCl], the “TOA:HeLa-ACE2 EC50 Ratio” value (SARS-CoV-2 [2]) was 3.833, the Emax (SARS-CoV-2 [2]; Severe acute respiratory syndrome coronavirus 2, HeLa-ACE2, 10 h, read-out: HeLa-ACE2 TOA CoV-2 Sinf Average) was 100% and the EC50 (SARS-CoV-2 [2]; Severe acute respiratory syndrome coronavirus 2, HeLa-ACE2) was 4.44 µM. The Emax (SARS-CoV-2 [3]) was 100%, the EC50 (SARS-CoV-2 [3]; [24]) was over 8.47 µM and the “Calu-3 SI” value (SARS-CoV-2 [3]; selectivity index, uninfected Calu-3 CC50 / SARS-CoV-2 EC50) was over 2.67. For the same molecule, the CC50 at 48 h [10, 25] was over 22.6 µM, the CC50 at 48 h ([10]; Calu-3 uninfected cytotoxicity CC50 GeoMean) was over 22.6 µM and the “Calu-3 uninfected cytotoxicity Sinf Average” value (Calu-3 cells [11]; human, uninfected Calu-3 cells, 48 h) was -100%. The CC50 at 72 h [16] was 30.5 µM, the “HepG2 72-hour cytotoxicity Sinf Average” value (HepG2 [17]) was -100% and the CC50 at 24 h [12, 26] was 18.7 µM. The CC50 at 24 h [12, 22] was over 23.9 µM, the “HeLa-ACE2 uninfected cytotoxicity Sinf Average” value (HeLa-ACE2 cells [5]; human, uninfected HeLa-ACE2 cells, 24 h) was -100% and the “Synergy score with remdesivir (δ)” value (SARS-CoV-2 [7]; HeLa-ACE2) was −3.51. The “HeLa-ACE2 synergy score with remdesivi” value (SARS-CoV-2 [7]; combination with remdesivir) was -3.509 δ, the “Approx. t1/2” value ([13]; human, ref [33]-[49]) was 58 h and the Cmax ([13]; human oral, ref [33]-[49]) was 1000 nM. The CC50 at 72 h [18] was 25.8 µM, the “HEK293T 72-hour cytotoxicty Sinf Average” value (HEK293T [19]) was -100% and the EC50 (Calu-3 cells [14]; Calu-3, read-out: Calu-3 cell count EC50 GeoMean) was over 9.98 µM. For the same molecule, the Emax (HeLa-ACE2 cells [15]) was -39%, the EC50 (HeLa-ACE2 cells [15]; HeLa-ACE2, read-out: HeLa-ACE2 cell count EC50 GeoMean) was over 6.19 µM and the Emax (SARS-CoV-2 [9]) was 100%. For the same molecule, the EC50 (SARS-CoV-2 [9]; Severe acute respiratory syndrome coronavirus 2, HeLa-ACE2, detail column, read-out: HeLa-ACE2 CoV-2 EC50 GeoMean) was 1.16 µM, the EC50 (SARS-CoV-2 [9]; [27]) was 0.33 µM and the “HeLa-ACE2 SI” value (SARS-CoV-2 [9]; selectivity index, uninfected HeLa-ACE2 CC50 / SARS-CoV-2 EC50) was over 20.66. It also gave an EC50 (HeLa-ACE2 cells [20]) of over 9.61 µM.
